Laboratory results taken from patent US20170312300A1, “Methods for Treating Cancer” (Fundacion Centro National de Investigaciones Oncolgicas …, priority 2014, published 2017).

What was measured:
[1] = molecular target: T1, kynurenine 3-monooxygenase (KMO) (Mus musculus, UniProt Q91WN4); test: Ro-61-8048 treatment of C57BL/6 mice previously fed DDC diet (liver NAD+ and DNA damage); assay type: in vivo; settings: 25 mg/Kg intraperitoneally for 3 consecutive days after 4 days DDC diet, vs DMSO
T1 construct: supplying C57BL/6 mice for 4 days with a DDC-supplemented diet; from tissue; host or cells: liver of living C57BL/6 mice (in vivo dosing)
Protocol: Freshly harvested murine livers were fixed immediately in 10% buffered formalin solution overnight and embedded in paraffin. Sections of 3 μm were deparafinized, rehydrated and antigen retrieved by using 1M sodium citrate buffer (pH 6.5). After blocking endogenous peroxidase using 3% H2O2 (in methanol) for 5 min, sections were then blocked with 1:200 goat serum 5% BSA/PBST for 1 h at RT. Furthermore, sections were incubated with primary antibodies overnight at 4° C., after which Vectastain ABC kit (Vector Laboratories, Inc) was used, following manufacturer's instructions. Sections were then incubated with 33-diaminobenzidinetetracloride (DBA) and counterstained with hematoxylin. In the case of immunofluorescence, sections were incubated with PE-conjugated secondary antibodies (1:500) for 1 h at RT, followed by DAPI staining. Quantification was performed either by counting the number of positive cells in a minimum of six 10× or 20× microscopic fields, or the percentage of positive area using Color Deconvolution plug-in in Image J.
NAD+ levels were determined using a commercial kit (Enzychrom, BioAssays Systems, CA), and as previously described (Canto et al., 2012, Cell Metab 15, 838-847). NAD+/NADH assay kit is based on a […] cycling reaction, in which the formed NADH reduces a formazan (MTT) reagent. […]

[2] = test system: hepatocarcinogenesis; settings: cited from earlier work
[3] = test system: model of hepatic carcinogenesis; settings: cited from earlier work
[4] = test system: advanced HCC; settings: patients with advanced HCC; cited from earlier work

T1 sequence (Q91WN4 whole entry): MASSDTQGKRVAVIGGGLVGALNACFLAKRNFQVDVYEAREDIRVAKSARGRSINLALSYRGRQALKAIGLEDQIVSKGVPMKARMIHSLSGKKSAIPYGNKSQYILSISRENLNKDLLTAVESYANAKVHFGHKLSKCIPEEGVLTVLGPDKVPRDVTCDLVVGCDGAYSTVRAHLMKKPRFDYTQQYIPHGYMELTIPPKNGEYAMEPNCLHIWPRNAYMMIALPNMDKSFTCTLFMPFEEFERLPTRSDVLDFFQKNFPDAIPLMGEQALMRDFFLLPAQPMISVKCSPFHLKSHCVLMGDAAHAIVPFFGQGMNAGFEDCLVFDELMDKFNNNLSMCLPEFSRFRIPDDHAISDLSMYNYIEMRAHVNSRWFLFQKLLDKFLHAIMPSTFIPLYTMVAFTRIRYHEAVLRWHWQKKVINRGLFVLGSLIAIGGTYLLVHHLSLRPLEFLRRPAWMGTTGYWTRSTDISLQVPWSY

COc1ccc(S(=O)(=O)Nc2nc(-c3cccc([N+](=O)[O-])c3)cs2)cc1OC [Ro-61-8048]
DNA damage foci (γH2AX) in livers [1]: significantly elevated
NAD+ concentrations in livers [1]: reduced

NC(=O)c1cccnc1 [nicotinamide]
hepatocarcinogenesis ([2]; both in vitro and in vivo): effectively inhibits
formation of loci and adenomas ([2]; in vivo): lower formation
number of foci, their diameter or proportion of liver occupied by loci [3]: no effect

CNC(=O)c1cc(Oc2ccc(NC(=O)Nc3ccc(Cl)c(C(F)(F)F)c3)cc2)ccn1 [sorafenib]
prolongation of survival compared to placebo [4]: around 2 months
